Our source for the TGI values is PubChem BioAssay (NCI).

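All cell lines were grown in 96-well plates and treated with compound for 48 hours. TGI: total growth inhibition.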

One assay concerns 786-0 renal. Kind of assay: NCI tumour cell line growth inhibition, 48 h.
For `CC(C)CCNC(=O)c1ccc(CNC(=O)/C=C/c2ccc(OCc3ccccc3)cc2)cc1`, the TGI is over 100 µM.

With `N#Cc1c2c(c(Nc3ccc(F)cc3)n3c1nc1ccccc13)CCC2`, the TGI turned out to be 3.25 µM.

In the case of `O=C(O[C@H](/C=C/c1ccccc1)P1(=O)N(Cc2ccccc2)[C@@H]2CCCC[C@H]2N1Cc1ccccc1)c1ccccc1`, the TGI was found to be 42 µM.

For the compound `CCOC(=O)C(=O)N1C(C)=C(C(=O)OCC)CC(C(=O)OCC)=C1C`, the TGI is over 100 µM.

Another assay relates to A498 renal. Kind of assay: NCI tumour cell line growth inhibition, 48 h.
In turn, `CC(C)CCNC(=O)c1ccc(CNC(=O)/C=C/c2ccc(OCc3ccccc3)cc2)cc1` came in with a TGI of over 100 µM.

`N#Cc1c2c(c(Nc3ccc(F)cc3)n3c1nc1ccccc13)CCC2` yielded a TGI of 28.8 µM.

Compound `O=C(O[C@H](/C=C/c1ccccc1)P1(=O)N(Cc2ccccc2)[C@@H]2CCCC[C@H]2N1Cc1ccccc1)c1ccccc1` gave a TGI of over 100 µM.

`CCOC(=O)C(=O)N1C(C)=C(C(=O)OCC)CC(C(=O)OCC)=C1C`: the TGI was over 100 µM.

Another assay concerns A549 NSCLC. Put plainly: NCI tumour cell line growth inhibition, 48 h.
For the compound `CC(C)CCNC(=O)c1ccc(CNC(=O)/C=C/c2ccc(OCc3ccccc3)cc2)cc1`, the TGI was over 100 µM.

In turn, `N#Cc1c2c(c(Nc3ccc(F)cc3)n3c1nc1ccccc13)CCC2` had a TGI of 22.5 µM.

With `O=C(O[C@H](/C=C/c1ccccc1)P1(=O)N(Cc2ccccc2)[C@@H]2CCCC[C@H]2N1Cc1ccccc1)c1ccccc1`, the TGI was over 100 µM.

For the compound `CCOC(=O)C(=O)N1C(C)=C(C(=O)OCC)CC(C(=O)OCC)=C1C`, the TGI is over 100 µM.

Another assay concerns ACHN renal. Put plainly: NCI tumour cell line growth inhibition, 48 h.
Turning to `CC(C)CCNC(=O)c1ccc(CNC(=O)/C=C/c2ccc(OCc3ccccc3)cc2)cc1`, the TGI is over 100 µM.

`N#Cc1c2c(c(Nc3ccc(F)cc3)n3c1nc1ccccc13)CCC2`: the TGI worked out at 5.8 µM.

Consider `O=C(O[C@H](/C=C/c1ccccc1)P1(=O)N(Cc2ccccc2)[C@@H]2CCCC[C@H]2N1Cc1ccccc1)c1ccccc1`, for which the TGI is over 100 µM.

With `CCOC(=O)C(=O)N1C(C)=C(C(=O)OCC)CC(C(=O)OCC)=C1C`, the TGI is over 100 µM.

The subject of the next assay is BT-549 breast. Put plainly: NCI tumour cell line growth inhibition, 48 h.
Compound `N#Cc1c2c(c(Nc3ccc(F)cc3)n3c1nc1ccccc13)CCC2` registered a TGI of 17.8 µM.

In turn, `O=C(O[C@H](/C=C/c1ccccc1)P1(=O)N(Cc2ccccc2)[C@@H]2CCCC[C@H]2N1Cc1ccccc1)c1ccccc1` came in with a TGI of over 100 µM.

For the next assay, the system named is CAKI-1 renal. Put plainly: NCI tumour cell line growth inhibition, 48 h.
`CC(C)CCNC(=O)c1ccc(CNC(=O)/C=C/c2ccc(OCc3ccccc3)cc2)cc1` displayed a TGI of over 100 µM.

`N#Cc1c2c(c(Nc3ccc(F)cc3)n3c1nc1ccccc13)CCC2` showed a TGI of 3.5 µM.

As to `O=C(O[C@H](/C=C/c1ccccc1)P1(=O)N(Cc2ccccc2)[C@@H]2CCCC[C@H]2N1Cc1ccccc1)c1ccccc1`, the TGI turned out to be 6.93 µM.

Compound `CCOC(=O)C(=O)N1C(C)=C(C(=O)OCC)CC(C(=O)OCC)=C1C` registered a TGI of over 100 µM.

The test system of the next assay is CCRF-CEM leukemia. Kind of assay: NCI tumour cell line growth inhibition, 48 h.
On to `CC(C)CCNC(=O)c1ccc(CNC(=O)/C=C/c2ccc(OCc3ccccc3)cc2)cc1`, for which the TGI was over 100 µM.

Take `N#Cc1c2c(c(Nc3ccc(F)cc3)n3c1nc1ccccc13)CCC2`: the TGI worked out at 4.52 µM.

For the compound `O=C(O[C@H](/C=C/c1ccccc1)P1(=O)N(Cc2ccccc2)[C@@H]2CCCC[C@H]2N1Cc1ccccc1)c1ccccc1`, the TGI was over 100 µM.

For `CCOC(=O)C(=O)N1C(C)=C(C(=O)OCC)CC(C(=O)OCC)=C1C`, the TGI is over 100 µM.

A further assay concerns COLO 205 colon. Put plainly: NCI tumour cell line growth inhibition, 48 h.
`CC(C)CCNC(=O)c1ccc(CNC(=O)/C=C/c2ccc(OCc3ccccc3)cc2)cc1` returned a TGI of over 100 µM.

The compound `N#Cc1c2c(c(Nc3ccc(F)cc3)n3c1nc1ccccc13)CCC2` showed a TGI of 14.1 µM.

Compound `O=C(O[C@H](/C=C/c1ccccc1)P1(=O)N(Cc2ccccc2)[C@@H]2CCCC[C@H]2N1Cc1ccccc1)c1ccccc1` returned a TGI of 5.08 µM.

`CCOC(=O)C(=O)N1C(C)=C(C(=O)OCC)CC(C(=O)OCC)=C1C` yielded a TGI of over 100 µM.

The next assay concerns DU-145 prostate. Put plainly: NCI tumour cell line growth inhibition, 48 h.
On to `CC(C)CCNC(=O)c1ccc(CNC(=O)/C=C/c2ccc(OCc3ccccc3)cc2)cc1`, for which the TGI is over 100 µM.

In turn, `N#Cc1c2c(c(Nc3ccc(F)cc3)n3c1nc1ccccc13)CCC2` came in with a TGI of 13.9 µM.

For `CCOC(=O)C(=O)N1C(C)=C(C(=O)OCC)CC(C(=O)OCC)=C1C`, the TGI was over 100 µM.

The next assay concerns EKVX NSCLC. Put plainly: NCI tumour cell line growth inhibition, 48 h.
Regarding `N#Cc1c2c(c(Nc3ccc(F)cc3)n3c1nc1ccccc13)CCC2`, the TGI is 26 µM.

The compound `O=C(O[C@H](/C=C/c1ccccc1)P1(=O)N(Cc2ccccc2)[C@@H]2CCCC[C@H]2N1Cc1ccccc1)c1ccccc1` returned a TGI of 68 µM.

Consider `CCOC(=O)C(=O)N1C(C)=C(C(=O)OCC)CC(C(=O)OCC)=C1C`, for which the TGI is over 100 µM.

A further assay has as its system HCC-2998 colon. Kind of assay: NCI tumour cell line growth inhibition, 48 h.
In the case of `CC(C)CCNC(=O)c1ccc(CNC(=O)/C=C/c2ccc(OCc3ccccc3)cc2)cc1`, the TGI was over 100 µM.

The compound `N#Cc1c2c(c(Nc3ccc(F)cc3)n3c1nc1ccccc13)CCC2` had a TGI of 41.9 µM.

`O=C(O[C@H](/C=C/c1ccccc1)P1(=O)N(Cc2ccccc2)[C@@H]2CCCC[C@H]2N1Cc1ccccc1)c1ccccc1` came in with a TGI of over 100 µM.

`CCOC(=O)C(=O)N1C(C)=C(C(=O)OCC)CC(C(=O)OCC)=C1C` displayed a TGI of over 100 µM.

A further assay relates to HCT-116 colon. Put plainly: NCI tumour cell line growth inhibition, 48 h.
As to `CC(C)CCNC(=O)c1ccc(CNC(=O)/C=C/c2ccc(OCc3ccccc3)cc2)cc1`, the TGI is over 100 µM.

For `N#Cc1c2c(c(Nc3ccc(F)cc3)n3c1nc1ccccc13)CCC2`, the TGI is 3.45 µM.

`O=C(O[C@H](/C=C/c1ccccc1)P1(=O)N(Cc2ccccc2)[C@@H]2CCCC[C@H]2N1Cc1ccccc1)c1ccccc1` registered a TGI of 12.1 µM.

Turning to `CCOC(=O)C(=O)N1C(C)=C(C(=O)OCC)CC(C(=O)OCC)=C1C`, the TGI was over 100 µM.

For another assay, the system named is HCT-15 colon. Put plainly: NCI tumour cell line growth inhibition, 48 h.
Take `CC(C)CCNC(=O)c1ccc(CNC(=O)/C=C/c2ccc(OCc3ccccc3)cc2)cc1`: the TGI was over 100 µM.

On to `N#Cc1c2c(c(Nc3ccc(F)cc3)n3c1nc1ccccc13)CCC2`, for which the TGI worked out at 13.1 µM.

`O=C(O[C@H](/C=C/c1ccccc1)P1(=O)N(Cc2ccccc2)[C@@H]2CCCC[C@H]2N1Cc1ccccc1)c1ccccc1` gave a TGI of 11.1 µM.

Compound `CCOC(=O)C(=O)N1C(C)=C(C(=O)OCC)CC(C(=O)OCC)=C1C` had a TGI of over 100 µM.

In another assay the test system is HL-60(TB) leukemia. Put plainly: NCI tumour cell line growth inhibition, 48 h.
The compound `N#Cc1c2c(c(Nc3ccc(F)cc3)n3c1nc1ccccc13)CCC2` showed a TGI of over 100 µM.

Regarding `O=C(O[C@H](/C=C/c1ccccc1)P1(=O)N(Cc2ccccc2)[C@@H]2CCCC[C@H]2N1Cc1ccccc1)c1ccccc1`, the TGI is over 100 µM.

Take `CCOC(=O)C(=O)N1C(C)=C(C(=O)OCC)CC(C(=O)OCC)=C1C`: the TGI was over 100 µM.

The next assay concerns HOP-62 NSCLC. Put plainly: NCI tumour cell line growth inhibition, 48 h.
On to `CC(C)CCNC(=O)c1ccc(CNC(=O)/C=C/c2ccc(OCc3ccccc3)cc2)cc1`, for which the TGI was over 100 µM.

`N#Cc1c2c(c(Nc3ccc(F)cc3)n3c1nc1ccccc13)CCC2` returned a TGI of 11.2 µM.
